{
  "source": "patent US12473250B2",
  "about": "“Molecular design of new antibiotics and antibiotic adjuvants against MCR strains” (priority 2019, dated 2025)",
  "key": {"[1]": {"assay": "Calcein leakage from large unilamellar vesicles", "conditions": "vesicles of 100 nm, DOPE/DOPG=3/1", "source_text": "FIG. 20 refers to a graph showing calcein leakage of LC100 and LC101 using large unilamellar vesicles of 100 nm. The lipid composition of the vesicle is DOPE/DOPG=3/1, mimicking the bacterial inner membrane. […] Further increase of LC100 or LC101 leads to decrease in the florescence because of a fluorescence quenching effect."}, "[2]": {"tested_on": "ACBA multi-drug resistant strains", "assay": "Synergy of LC100 with colistin against multi-drug resistant strains (Table 5)", "assay_type": "cell-based, Acinetobacter baumannii", "description": "The MICs of the individual drugs and LC compound in combinations were determined using the broth microdilution technique as recommended by the CLSI whereby the two anti-microbial agents were added in an equal amount. (e.g.: 50 μL of Colistin: 50 μL of LC compounds). Diluted media containing compounds and antibiotics will be serially diluted 2-fold, and LC compounds and antibiotics alone or in combination will be assayed at fixed synergy concentration. In all cases, the lowest concentration at which no visible growth occurred was be recorded to be the MIC value of individual and combined antibacterial agents. The results were obtained after 24 hours of incubation."}, "[3]": {"tested_on": "colistin resistant MCR (−) E. Coli strains", "assay": "Synergy study: colistin MIC in the presence of compound", "assay_type": "cell-based", "outline": "(§1)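 After 24 hours, MIC was read as the lowest concentration without visible growth. Drugs were tested singly and in combination by CLSI broth microdilution, equal-amount colistin:LC compound mixtures serially diluted 2-fold at a fixed synergy concentration.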"}, "[4]": {"tested_on": "colistin resistant MCR (−) E. Cloacae strain 7023456439", "assay": "Synergy study: colistin MIC in the presence of compound", "assay_type": "cell-based", "conditions": "strain 7023456439 E. Cloacae", "outline": "as §1"}, "[5]": {"tested_on": "colistin resistant MCR (+) E. Coli strains", "assay": "Synergy study: colistin MIC in the presence of compound", "assay_type": "cell-based", "outline": "as §1"}},
  "note": "Entries after “also recorded” stand apart in the source; their conditions may differ.",
  "data": [
    {"smiles": "CCN(CC)CCCCOc1ccc(/C=C/C(=O)c2ccc(OCCCCN(CC)CC)c(CC=C(C)C)c2O)cc1", "note": "[LC100]", "values": [
      {"measurement": "calcein leakage / disruption of vesicles", "setting": "[1]", "value": "significant florescence was detected; also recorded: disrupts liposomes"},
      {"measurement": "Colistin MIC in the presence of LC100", "setting": "[2]; strain ACBA 1010, LC 100 2 μg", "value": "<0.0975", "unit": "µg/mL"},
      {"measurement": "Colistin MIC in the presence of LC100", "setting": "[2]; strain ACBA 1010, LC 100 5 μg", "value": "<0.0975", "unit": "µg/mL"},
      {"measurement": "Colistin MIC in the presence of LC100", "setting": "[2]; strain ACBA 1012, LC 100 2 μg", "value": 0.39, "unit": "µg/mL"},
      {"measurement": "Colistin MIC in the presence of LC100", "setting": "[2]; strain ACBA 1012, LC 100 5 μg", "value": "<0.0975", "unit": "µg/mL"},
      {"measurement": "Colistin MIC in the presence of LC100", "setting": "[2]; strain ACBA 43357, LC 100 2 μg", "value": 0.39, "unit": "µg/mL"},
      {"measurement": "Colistin MIC in the presence of LC100", "setting": "[2]; strain ACBA 43357, LC 100 5 μg", "value": "<0.0975", "unit": "µg/mL"},
      {"measurement": "Colistin MIC in the presence of LC100", "setting": "[2]; strain ACBA ATCC 19606, LC 100 2 μg", "value": 0.195, "unit": "µg/mL"},
      {"measurement": "Colistin MIC in the presence of LC100", "setting": "[2]; strain ACBA ATCC 19606, LC 100 5 μg", "value": "<0.0975", "unit": "µg/mL"},
      {"measurement": "colistin level to which E. coli became sensitive in the presence of LC100", "setting": "[3]; resistant bacteria without mcr-1", "value": "< 0.5", "unit": "µg/mL"},
      {"measurement": "Colistin MIC in the presence of the compound", "setting": "[3]; strain 6083672926, MCR(−), compound at 2 μg", "value": "<0.0975", "unit": "µg/mL"},
      {"measurement": "Colistin MIC in the presence of the compound", "setting": "[3]; strain 6083672926, MCR(−), compound at 5 μg (Table 2a: 5 ug/ml)", "value": 0.195, "unit": "µg/mL"},
      {"measurement": "Colistin MIC in the presence of the compound", "setting": "[3]; strain 6083672926, MCR(−), compound at 10 μg (Table 2a: 10 ug/ml)", "value": "<0.098", "unit": "µg/mL"},
      {"measurement": "Colistin MIC in the presence of the compound", "setting": "[3]; strain 6083672926, MCR(−), compound at 10 μg (Table 2a: 10 ug/ml), listed as LC 100", "value": "<0.0975", "unit": "µg/mL"},
      {"measurement": "Colistin MIC in the presence of the compound", "setting": "[3]; strain 7023446108, MCR(−), compound at 2 μg", "value": "<0.0975", "unit": "µg/mL"},
      {"measurement": "Colistin MIC in the presence of the compound", "setting": "[3]; strain 7023446108, MCR(−), compound at 5 μg (Table 2a: 5 ug/ml)", "value": 0.195, "unit": "µg/mL"},
      {"measurement": "Colistin MIC in the presence of the compound", "setting": "[3]; strain 7023446108, MCR(−), compound at 10 μg (Table 2a: 10 ug/ml)", "value": "<0.098", "unit": "µg/mL"},
      {"measurement": "Colistin MIC in the presence of the compound", "setting": "[3]; strain 7023446108, MCR(−), compound at 10 μg (Table 2a: 10 ug/ml), listed as LC 100", "value": "<0.0975", "unit": "µg/mL"},
      {"measurement": "Colistin MIC in the presence of the compound", "setting": "[3]; strain 7033607097, MCR(−), compound at 2 μg", "value": "<0.0975", "unit": "µg/mL"},
      {"measurement": "Colistin MIC in the presence of the compound", "setting": "[3]; strain 7033607097, MCR(−), compound at 5 μg (Table 2a: 5 ug/ml)", "value": 0.195, "unit": "µg/mL"},
      {"measurement": "Colistin MIC in the presence of the compound", "setting": "[3]; strain 7033607097, MCR(−), compound at 10 μg (Table 2a: 10 ug/ml)", "value": "<0.098", "unit": "µg/mL"},
      {"measurement": "Colistin MIC in the presence of the compound", "setting": "[3]; strain 7033607097, MCR(−), compound at 10 μg (Table 2a: 10 ug/ml), listed as LC 100", "value": "<0.0975", "unit": "µg/mL"},
      {"measurement": "Colistin MIC in the presence of the compound", "setting": "[4]; compound at 2 μg", "value": "<0.0975", "unit": "µg/mL"},
      {"measurement": "Colistin MIC in the presence of the compound", "setting": "[4]; compound at 5 μg (Table 2a: 5 ug/ml)", "value": 0.195, "unit": "µg/mL"},
      {"measurement": "Colistin MIC in the presence of the compound", "setting": "[4]; compound at 10 μg (Table 2a: 10 ug/ml)", "value": "<0.098", "unit": "µg/mL"},
      {"measurement": "Colistin MIC in the presence of the compound", "setting": "[4]; compound at 10 μg (Table 2a: 10 ug/ml), listed as LC 100", "value": "<0.0975", "unit": "µg/mL"},
      {"measurement": "Colistin MIC in the presence of LC100", "setting": "[5]; LC100 greater than 5 μg/ml, as low as", "value": 0.0975, "unit": "µg/mL"},
      {"measurement": "concentration at which the compound shows synergy with colistin", "setting": "[5]; against mcr-1 bacteria", "value": 2, "unit": "µg/mL"},
      {"measurement": "synergy with colistin", "setting": "[5]; against mcr-1 bacteria, in words", "value": "excellent synergy"},
      {"measurement": "Colistin MIC in the presence of the compound", "setting": "[5]; strain 6075066346, MCR(+), compound at 2 μg", "value": 1.56, "unit": "µg/mL"},
      {"measurement": "Colistin MIC in the presence of the compound", "setting": "[5]; strain 6075066346, MCR(+), compound at 3 μg", "value": 0.78, "unit": "µg/mL"},
      {"measurement": "Colistin MIC in the presence of the compound", "setting": "[5]; strain 6075066346, MCR(+), compound at 5 μg (Table 2a: 5 ug/ml)", "value": 0.195, "unit": "µg/mL"},
      {"measurement": "Colistin MIC in the presence of the compound", "setting": "[5]; strain 6075066346, MCR(+), compound at 10 μg (Table 2a: 10 ug/ml)", "value": "<0.098", "unit": "µg/mL"},
      {"measurement": "Colistin MIC in the presence of the compound", "setting": "[5]; strain 6075066346, MCR(+), compound at 10 μg (Table 2a: 10 ug/ml), listed as LC 100", "value": "<0.0975", "unit": "µg/mL"},
      {"measurement": "Colistin MIC in the presence of the compound", "setting": "[5]; strain 6083655967, MCR(+), compound at 2 μg", "value": 1.56, "unit": "µg/mL"},
      {"measurement": "Colistin MIC in the presence of the compound", "setting": "[5]; strain 6083655967, MCR(+), compound at 3 μg", "value": 0.39, "unit": "µg/mL"},
      {"measurement": "Colistin MIC in the presence of the compound", "setting": "[5]; strain 6083655967, MCR(+), compound at 5 μg (Table 2a: 5 ug/ml)", "value": 0.195, "unit": "µg/mL"},
      {"measurement": "Colistin MIC in the presence of the compound", "setting": "[5]; strain 6083655967, MCR(+), compound at 10 μg (Table 2a: 10 ug/ml)", "value": "<0.098", "unit": "µg/mL"}
    ]}
  ]
}
